Assay results taken from patent publication US20230126447A1, “OCULAR DRUG DEPOT FOR COMPLEMENT-MEDIATED DISORDERS” (priority 2020, published 2023).

Assays:
[1] = Stability under melanin binding assay conditions; details: PBS, 37° C., 1 hour vs time zero
Experimental: (§1) […] The melanin solution was stored in the dark at 37° C. until use.
(§2) The assay plates containing samples with and without melanin were incubated in the dark with shaking at 37° C. for 1 hour. Following incubation, the samples were centrifuged for 15 minutes at approximately 4000 rpm at 37° C. to sediment the melanin. Sample supernatant (3 μL) was added to 100 μL of acetonitrile containing the internal standard and then diluted with water (197 μL).
% Stability=Mean Total Conc. (μM) after 1 Hour/Mean Total Conc. (μM) at Time Zero×100%

[2] = In vitro binding to synthetic melanin; details: synthetic melanin 50 μg/mL, PBS, 37° C., 1 hour
Experimental: as §1
(§3) Immediately after the assay, samples were added to an equal volume of warm PBS, aliquots (3 μL each) were removed, added to 100 μL of acetonitrile containing carbutamide as internal standard, and then diluted with water (197 μL). These time-zero samples, prepared in PBS only, were also used as calibration standards.
as §2
(§4) The column was set to a temperature of 55° C. […]
(§5) Analytes and internal standards were detected using an Applied Biosystems Sciex API-5500 triple quadrupole mass spectrometer with Agilent 1260 Infinity Binary Pump and Apricot Designs ADDA High-Speed Dual Arm Autosampling System. The instrument was equipped with an electrospray ionization source (600° C.) operated in the positive ion mode. Analytes and internal standards for all samples were monitored in the multiple-reaction-monitoring scan mode.

[3] = In vitro binding to melanin from Sepia officinalis; details: S. officinalis melanin 50 μg/mL, PBS, 37° C., 1 hour
Experimental: as §1, §3, §2, §4, §5

[4] = QWBA tissue distribution of [14C] Compound 2, Wistar Hannover rats (PO); format: in vivo; details: 20 mg/kg PO
Experimental: (§6) The study was conducted to determine the tissue distribution of [^14C] Compound 2-derived radioactivity following a single oral gavage (PO) administration of 20 mg/kg (100 μCi/kg) of [^14C] […] Compound 2 to a male Long-Evans rat using quantitative whole body autoradiography (QWBA).
(§7) A total of ten male Long-Evans and three male Wistar Hannover rats were administered a single PO dose of [^14C] […] One male Long-Evans rat was administered a single IV dose of [^14C] […] (See Table 3). One animal per group per strain was anesthetized by inhalation of isoflurane gas at designated time points post-dose, followed by blood collection via cardiac puncture and euthanasia by isoflurane overdose. Each carcass was then frozen in a dry ice/hexane bath. Blood and plasma samples were assayed for total radioactivity (TRA) concentrations by liquid scintillation counting (LSC). The tissue concentrations of TRA were determined using validated QWBA techniques. Pharmacokinetic parameters of derived radioactivity in blood, plasma, and tissues were calculated, to the extent possible, using Phoenix© WinNonlin® (Version 6.3, Pharsight Corporation; Mountain View, Calif.).

[5] = QWBA tissue distribution of [14C] Compound 2, Long-Evans rats (PO, IV); format: in vivo
Experimental: as §6, §7

CFD = CFD (Homo sapiens, UniProt P00746); assay: Inhibitory effect on CFD; format: biochemical
[6] = male Wistar Hannover rats, 1 h post-dose
[7] = male Wistar Hannover rats, 24 h post-dose
[8] = male Long-Evans rats, 20 mg/kg PO

CFD, sequence (P00746 26-253): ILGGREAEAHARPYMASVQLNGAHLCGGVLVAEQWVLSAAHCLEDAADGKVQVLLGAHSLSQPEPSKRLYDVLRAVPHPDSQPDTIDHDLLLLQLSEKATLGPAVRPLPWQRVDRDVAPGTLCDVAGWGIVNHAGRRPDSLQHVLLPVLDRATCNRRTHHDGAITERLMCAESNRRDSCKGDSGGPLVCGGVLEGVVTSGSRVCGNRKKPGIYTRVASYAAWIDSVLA

SMILES: CCN(CC)CCCC(C)Nc1ccnc2cc(Cl)ccc12 (stereo not shown) [Chloroquine, chloroquine, reference compound]
- Mean Stability [1]: 87.3%
- Bmax (binding capacity) [2]: 308 nmol/mg melanin
- Bmax (binding capacity) [3]: 280 nmol/mg melanin

SMILES: CC(=O)c1nn(CC(=O)N2[C@H](C(=O)Nc3nc(Br)ccc3C)C[C@@]3(C)C[C@@H]23)c2ccc(-c3cnc(C)nc3)cc12 [Compound 2, (1R,3S,5R)-2-(2-(3-acetyl-5-(2-methylpyrimidin-5-yl)-1H-indazol-1-yl)acetyl)-N-(6-bromo-3-methylpyridin-2-yl)-5-methyl-2-azabicyclo[3.1.0]hexane-3-carboxamide]
- Radioactivity in the central nervous system ([4]; Wistar Hannover rat, 1 h post-dose): 0.179 μg equiv/g tissue
- Tmax, all tissues ([4]; male Wistar Hannover rats): 1 h
- Tissue to plasma concentration ratio, brain [4, 6]: 0.04
- Tissue to plasma concentration ratio, cecum mucosa [4, 6]: 0.96
- Tissue to plasma concentration ratio, kidney medulla [4, 6]: 12.6
- Tissue to plasma concentration ratio, stomach wall non-glandular [4, 6]: 1.00
- Tissue to plasma ratio, bone marrow [4, 7]: 2.90
- Tissue to plasma ratio, stomach wall non-glandular [4, 7]: 100
- Total plasma radioactivity ([4]; male Wistar Hannover rats, 168 h post-dose): BLQ
- Radioactivity in the central nervous system ([5]; male Long-Evans rat, 5 mg/kg IV, […] post-dose): 0.201 μg equiv/g tissue
- Tissue:plasma AUC0-t ratio, majority of tissues [5, 8]: greater than 1.00
- Tmax, majority of tissues [5, 8]: 1 h
- Total plasma radioactivity ([5]; male Long-Evans rats, 20 mg/kg PO, 48 h post-dose): BLQ
- Blood concentration of radioactivity ([5]; male Long-Evans rats, 20 mg/kg PO, 72 h post-dose): BLQ
- Concentration of radioactivity, eye and uveal tract ([5]; male Long-Evans rats, 20 mg/kg PO, 840 h post-dose): 0.212 μg equiv/g tissue

SMILES: CC(=O)c1cn(CC(=O)N2[C@H](C(=O)Nc3nc(Br)ccc3C)C[C@@]3(C)C[C@@H]23)c2c(C)cc(-c3cnc(C)nc3)cc12 [Compound 3, (1R,3S,5R)-2-(2-(3-acetyl-7-methyl-5-(2-methylpyrimidin-5-yl)-1H-indol-1-yl)acetyl)-N-(6-bromo-3-methylpyridin-2-yl)-5-methyl-2-azabicyclo[3.1.0]hexane-3-carboxamide]
- IC50 (CFD): 32.1 nM
